The assay addresses human KDR protein in HEK-293 cells (Homo sapiens (Human), UniProt P35968). The assay is described as follows: KDR Cell Assay (phospho-KDR in HEK-293 cells expressing inducible KDR). The class given is cell-based. Summed up: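 HEK-293 cells with inducible human KDR were treated with compound for 1 h in DMEM (0.25% DMSO final), then lysed. Phospho-KDR was quantified by Meso Scale immunoassay, expressed as percent of control, and IC50 taken where a 4-parameter logistic fit crossed 50 POC.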

Where [1] appears, read: pKDR Cell HEK 10% FBS IC50, HEK-293 cells expressing inducible KDR, VEGF stimulated.
Where [2] appears, read: pKDR Cell HEK 10% FBS IC50, HEK-293 cells expressing inducible KDR, VEGF stimulated, 10% FBS.

Drawing on US10023570B2 (Array BioPharma, Inc., priority 2015, dated 2018), this text covers IC50 for 26 compounds.

The term pIC50 denotes −log10 of the IC50, conventionally taken in molar units.

Structures are written as SMILES. pIC50: −log10 of the molar value. Counter-ions that a name gives are not always drawn.

human KDR protein in HEK-293 cells, sequence (P35968 20-1356): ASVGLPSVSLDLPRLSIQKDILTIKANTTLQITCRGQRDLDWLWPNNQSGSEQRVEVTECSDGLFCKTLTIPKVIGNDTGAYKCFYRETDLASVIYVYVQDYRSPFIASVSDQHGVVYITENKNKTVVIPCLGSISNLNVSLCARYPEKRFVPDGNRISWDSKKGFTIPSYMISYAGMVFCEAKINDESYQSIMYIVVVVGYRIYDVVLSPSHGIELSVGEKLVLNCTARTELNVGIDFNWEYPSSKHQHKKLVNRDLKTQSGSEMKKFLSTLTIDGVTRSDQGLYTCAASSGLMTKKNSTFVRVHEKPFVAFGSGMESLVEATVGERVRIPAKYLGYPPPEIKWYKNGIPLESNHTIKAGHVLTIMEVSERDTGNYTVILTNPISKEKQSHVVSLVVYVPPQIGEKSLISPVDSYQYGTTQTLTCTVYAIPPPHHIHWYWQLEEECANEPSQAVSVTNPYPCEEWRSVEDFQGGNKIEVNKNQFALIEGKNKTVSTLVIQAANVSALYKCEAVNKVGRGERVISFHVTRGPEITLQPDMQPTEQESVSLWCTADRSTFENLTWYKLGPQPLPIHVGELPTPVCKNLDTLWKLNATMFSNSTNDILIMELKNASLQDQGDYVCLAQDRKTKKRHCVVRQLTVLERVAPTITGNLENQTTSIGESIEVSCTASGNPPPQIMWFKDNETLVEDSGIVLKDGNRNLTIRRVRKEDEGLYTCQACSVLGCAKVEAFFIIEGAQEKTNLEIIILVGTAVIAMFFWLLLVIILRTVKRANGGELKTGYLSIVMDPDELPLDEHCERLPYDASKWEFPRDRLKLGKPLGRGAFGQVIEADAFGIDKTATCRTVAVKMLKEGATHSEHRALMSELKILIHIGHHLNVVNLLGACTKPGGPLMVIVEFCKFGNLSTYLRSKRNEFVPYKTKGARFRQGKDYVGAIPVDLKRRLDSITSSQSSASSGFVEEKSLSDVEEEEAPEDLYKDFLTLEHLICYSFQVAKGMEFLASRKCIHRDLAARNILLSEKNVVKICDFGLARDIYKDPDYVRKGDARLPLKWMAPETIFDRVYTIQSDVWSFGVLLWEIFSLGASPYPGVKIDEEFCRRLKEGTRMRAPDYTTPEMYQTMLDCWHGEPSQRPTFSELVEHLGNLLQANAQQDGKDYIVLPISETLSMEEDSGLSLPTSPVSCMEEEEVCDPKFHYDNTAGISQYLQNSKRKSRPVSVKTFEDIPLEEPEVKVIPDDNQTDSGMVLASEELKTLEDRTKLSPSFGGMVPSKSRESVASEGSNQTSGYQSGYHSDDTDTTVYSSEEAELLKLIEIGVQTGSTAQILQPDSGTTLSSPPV

Regarding `Cn1cc(-c2cc(-c3ccc(N4CCC5(CCN(C(=O)OC(C)(C)C)CC5)C4)nc3)c3c(C#N)cnn3c2)cn1` [Example 517, tert-butyl 2-(5-(3-cyano-6-(1-methyl-1H-pyrazol-4-yl)pyrazolo[1,5-a]pyridin-4-yl)pyridin-2-yl)-2,8-diazaspiro[4.5]decane-8-carboxylate], the pIC50 under setting [1] is 5.75.
As to `Cn1cc(-c2cc(-c3ccc(N4CCN(C(=O)C5(c6ccc(Cl)cc6)CC5)CC4)nc3)c3c(C#N)cnn3c2)cn1` [Example 341, 4-(6-(4-(1-(4-chlorophenyl)cyclopropanecarbonyl)piperazin-1-yl)pyridin-3-yl)-6-(1-methyl-1H-pyrazol-4-yl)pyrazolo[1,5-a]pyridine-3-carbonitrile], under setting [2], the pIC50 was 6.62.
The same measure, in the same setting: under `Cn1cc(-c2cc(-c3ccc(N4CCN(CC(O)c5c(F)cccc5F)CC4)nc3)c3c(C#N)cnn3c2)cn1` (centres unmarked) [Example 154, 4-(6-(4-(2-(2,6-difluorophenyl)-2-hydroxyethyl)piperazin-1-yl)pyridin-3-yl)-6-(1-methyl-1H-pyrazol-4-yl)pyrazolo[1,5-a]pyridine-3-carbonitrile] stands 6.81; under `Cn1cc(-c2cc(-c3ccc(N4CCN(C(=O)N5CC[C@@H](F)C5)CC4)nc3)c3c(C#N)cnn3c2)cn1` [Example 103, (R)-4-(6-(4-(3-fluoropyrrolidine-1-carbonyl)piperazin-1-yl)pyridin-3-yl)-6-(1-methyl-1H-pyrazol-4-yl)pyrazolo[1,5-a]pyridine-3-carbonitrile], 6.07.
Take `Cn1cc(-c2cc(-c3ccc(N4CCN(Cc5cccc(Cl)c5)CC4)nc3)c3c(C#N)cnn3c2)cn1` [Example 455, 4-(6-(4-(3-chlorobenzyl)piperazin-1-yl)pyridin-3-yl)-6-(1-yl)methyl-1H-pyrazol-4-pyrazolo[1,5-a]pyridine-3-carbonitrile]: under setting [1], the pIC50 was 6.33.
Regarding `Cn1cc(-c2cc(-c3ccc(N4CCN(C(=O)N5CCCC(F)C5)CC4)nc3)c3c(C#N)cnn3c2)cn1` (centres unmarked) [Example 116, 4-(6-(4-(3-fluoropiperidine-1-carbonyl)piperazin-1-yl)pyridin-3-yl)-6-(1-methyl-1H-pyrazol-4-yl)pyrazolo[1,5-a]pyridine-3-carbonitrile], the pIC50 under setting [2] is 5.64.
Same read-out and setting: under `Cn1cc(-c2cc(-c3cnc(N4CCN(C(=O)[C@H](O)c5ccccc5)CC4)nc3)c3c(C#N)cnn3c2)cn1` [Example 282, (R)-4-(2-(4-(2-hydroxy-2-phenylacetyl)piperazin-1-yl)pyrimidin-5-yl)-6-(1-methyl-1H-pyrazol-4-yl)pyrazolo[1,5-a]pyridine-3-carbonitrile] stands 6.18.
The same measure, in the same setting: under `Cn1cnc(C(=O)N2CCN(c3ccc(-c4cc(-c5cnn(C)c5)cn5ncc(C#N)c45)cn3)CC2)c1` [Example 36, 4-(6-(4-(1-methyl-1H-imidazole-4-carbonyl)piperazin-1-yl)pyridin-3-yl)-6-(1-methyl-1H-pyrazol-4-yl)pyrazolo[1,5-a]pyridine-3-carbonitrile bis(2,2,2-trifluoroacetate)] stands 6.67.
In the case of `Cn1cc(-c2cc(-c3ccc(N4CC5CC(C4)N5Cc4ccccc4)nc3)c3c(C#N)cnn3c2)cn1` [Example 489, 4-(6-(6-benzyl-3,6-diazabicyclo[3.1.1]heptan-3-yl)pyridin-3-yl)-6-(1-methyl-1H-pyrazol-4-yl)pyrazolo[1,5-a]pyridine-3-carbonitrile], under setting [1], the pIC50 was 7.71.
Same read-out and setting: under `Cn1cc(CN2CCN(c3ccc(-c4cc(-c5cnn(C)c5)cn5ncc(C#N)c45)cn3)CC2)cn1` [Example 448, 6-(1-methyl-1H-pyrazol-4-yl)-4-(6-(4-((1-methyl-1H-pyrazol-4-yl)methyl)piperazin-1-yl)pyridin-3-yl)pyrazolo[1,5-a]pyridine-3-carbonitrile] stands 5.76.
On to `CO[C@H]1C[C@H]2CC[C@@H](C1)N2c1ccc(-c2cc(-c3cnn(C)c3)cn3ncc(C#N)c23)cn1` [Example 200, 4-(6-((1R,3r,5S)-3-methoxy-8-azabicyclo[3.2.1]octan-8-yl)pyridin-3-yl)-6-(1-methyl-1H-pyrazol-4-yl)pyrazolo[1,5-a]pyridine-3-carbonitrile], for which the pIC50 under setting [2] was 6.33.
On the same count and under the same terms, under `Cn1cc(-c2cc(-c3ccc(N4[C@@H]5CC[C@H]4C[C@@H](N)C5)nc3)c3c(C#N)cnn3c2)cn1` [Example 195, 4-(6-((1R,3r,5S)-3-amino-8-azabicyclo[3.2.1]octan-8-yl)pyridin-3-yl)-6-(1-methyl-1H-pyrazol-4-yl)pyrazolo[1,5-a]pyridine-3-carbonitrile dihydrochloride] stands 6.61; under `Cn1cc(-c2cc(-c3ccc(N4CCN(C(=O)C(c5ccccc5)N5CCCCC5)CC4)nc3)c3c(C#N)cnn3c2)cn1` (centres unmarked) [Example 368, 6-(1-methyl-1H-pyrazol-4-yl)-4-(6-(4-(2-phenyl-2-(piperidin-1-yl)acetyl)piperazin-1-yl)pyridin-3-yl)pyrazolo[1,5-a]pyridine-3-carbonitrile bis(2,2,2-trifluoroacetate)], 5.73.
On the same count and under the same terms, under `COCC1(C(=O)N2CCN(c3ccc(-c4cc(-c5cnn(C)c5)cn5ncc(C#N)c45)cn3)CC2)CC1` [Example 353, 4-(6-(4-(1-(methoxymethyl)cyclopropanecarbonyl)piperazin-1-yl)pyridin-3-yl)-6-(1-methyl-1H-pyrazol-4-yl)pyrazolo[1,5-a]pyridine-3-carbonitrile] stands 5.77.
Regarding `Cn1cc(-c2cc(-c3ccc(N4C5CCC4CN(Cc4ccccc4)C5)nc3)c3c(C#N)cnn3c2)cn1` [Example 491, 4-(6-(3-benzyl-3,8-diazabicyclo[3.2.1]octan-8-yl)pyridin-3-yl)-6-(1-methyl-1H-pyrazol-4-yl)pyrazolo[1,5-a]pyridine-3-carbonitrile], under setting [1], the pIC50 is 6.92.
The same measure, in the same setting: under `CCc1cnn2cc(-c3cnn(C)c3)cc(-c3ccc(N4CCN(C(=O)[C@H](O)c5ccccc5)CC4)nc3)c12` [Example 658, (R)-1-(4-(5-(3-ethyl-6-(1-methyl-1H-pyrazol-4-yl)pyrazolo[1,5-a]pyridin-4-yl)pyridin-2-yl)piperazin-1-yl)-2-hydroxy-2-phenylethanone] stands 5.73.
For the compound `CO[C@@H](C(=O)N1CCN(c2ccc(-c3cc(-c4cnn(C)c4)cn4ncc(C#N)c34)cn2)CC1)C(C)C` [Example 86, (R)-4-(6-(4-(2-methoxy-3-methylbutanoyl)piperazin-1-yl)pyridin-3-yl)-6-(1-methyl-1H-pyrazol-4-yl)pyrazolo[1,5-a]pyridine-3-carbonitrile], the negative logarithm of the IC50 (pIC50) under setting [2] was 6.37.
For the compound `CC[C@H](O)CN1CCN(c2ccc(-c3cc(-c4cnn(C)c4)cn4ncc(C#N)c34)cn2)CC1` [Example 150, (S)-4-(6-(4-(2-hydroxybutyl)piperazin-1-yl)pyridin-3-yl)-6-(1-methyl-1H-pyrazol-4-yl)pyrazolo[1,5-a]pyridine-3-carbonitrile], where the note is “pKDR Cell HEK 10% FBS IC50”, the pIC50 is 6.14.
Compound `Cn1cc(-c2cc(-c3ccc(N4CCN(C(=O)C5(c6cnccn6)CC5)CC4)nc3)c3c(C#N)cnn3c2)cn1` [Example 350, 6-(1-methyl-1H-pyrazol-4-yl)-4-(6-(4-(1-(pyrazin-2-yl)cyclopropane-carbonyl)piperazin-1-yl)pyridin-3-yl)pyrazolo[1,5-a]pyridine-3-carbonitrile] showed a pIC50 under setting [2] of 5.73.
With `COCCN1CCN(c2ccc(-c3cc(-c4cnn(C)c4)cn4ncc(C#N)c34)cn2)CC1` [Example 396, 4-(6-(4-(2-methoxyethyl)piperazin-1-yl)pyridin-3-yl)-6-(1-methyl-1H-pyrazol-4-yl)pyrazolo[1,5-a]pyridine-3-carbonitrile], under setting [1], the pIC50 is 5.83.
Same read-out and setting: under `Cn1cc(-c2cc(-c3ccc(N4CCC5(CN(C(=O)OC(C)(C)C)C5)C4)nc3)c3c(C#N)cnn3c2)cn1` [Example 521, tert-butyl 6-(5-(3-cyano-6-(1-methyl-1H-pyrazol-4-yl)pyrazolo[1,5-a]pyridin-4-yl)pyridin-2-yl)-2,6-diazaspiro[3.4]octane-2-carboxylate] stands 6.17.
`Cn1cc(-c2cc(-c3ccc(N4CCN(C(=O)c5cccnc5)CC4)nc3)c3c(C#N)cnn3c2)cn1` [Example 73, 6-(1-methyl-1H-pyrazol-4-yl)-4-(6-(4-nicotinoylpiperazin-1-yl)pyridin-3-yl)pyrazolo[1,5-a]pyridine-3-carbonitrile] had a pIC50 under setting [2] of 6.53.
As to `C[C@@H](c1ccccc1)N1CCN(c2ccc(-c3cc(-c4cnn(C)c4)cn4ncc(C#N)c34)cn2)CC1` [Example 422, (S)-6-(1-methyl-1H-pyrazol-4-yl)-4-(6-(4-(1-phenylethyl)piperazin-1-yl)pyridine-3-yl)pyrazolo[1,5-a]pyridine-3-carbonitrile dihydrochloride], under setting [1], the pIC50 is 6.03.
Compound `Cn1cc(-c2cc(-c3ccc(N4CCC(N5CCOC5=O)CC4)nc3)c3c(C#N)cnn3c2)cn1` [Example 191, 6-(1-methyl-1H-pyrazol-4-yl)-4-(6-(4-(2-oxooxazolidin-3-yl)piperidin-1-yl)pyridin-3-yl)pyrazolo[1,5-a]pyridine-3-carbonitrile] gave a pIC50 under setting [2] of 7.66.
Under setting [1], `Cn1cc(-c2cc(-c3ccc(N4CCN(C(=O)N5CCC(C(F)(F)F)C5)CC4)nc3)c3c(C#N)cnn3c2)cn1` (centres unmarked) [Example 391, 6-(1-methyl-1H-pyrazol-4-yl)-4-(6-(4-(3-(trifluoromethyl)pyrrolidine-1-carbonyl)piperazin-1-yl)pyridin-3-yl)pyrazolo[1,5-a]pyridine-3-carbonitrile] gave a pIC50 of 6.01.
In the case of `Cn1cc(-c2cc(-c3ccc(N4CCN(S(C)(=O)=O)CC4)cc3)c3c(C#N)cnn3c2)cn1` [Example 297, 6-(1-methyl-1H-pyrazol-4-yl)-4-(4-(4-(methylsulfonyl)piperazin-1-yl)phenyl)pyrazolo[1,5-a]pyridine-3-carbonitrile], the pIC50 under setting [2] is 6.72.
